# Measurements reported in ChEMBL document CHEMBL4043168, “The design and SAR of a novel series of 2-aminopyridine based LRRK2 inhibitors” (Bioorg Med Chem Lett, 2017).
# Columns and labels:
# [1] = biological target: 5'-AMP-activated protein kinase catalytic subunit alpha-1 (Homo sapiens) (UniProt Q13131); test: Inhibition of AMPKa1 labeling at conserved Lys1 (VAVKILNR) in human PBMC at 1 uM
# [2] = biological target: Cyclin-dependent kinase 2 (Homo sapiens) (UniProt P24941); test: Inhibition of CDK2 labeling at conserved Lys2 (DLKPQNLLINTEGAIK) in human PBMC at 1 uM
# [3] = biological target: Cyclin-dependent kinase 5 (Homo sapiens) (UniProt Q00535); test: Inhibition of CDK5 labeling at conserved Lys2 (DLKPQNLLINR) in human PBMC at 1 uM
# [4] = biological target: Mitogen-activated protein kinase 1 (Homo sapiens) (UniProt P28482); test: Inhibition of Erk2 ATP binding site (DLKPSNLLLNTTCDLK) in human PBMC at 1 uM
# [5] = biological target: Tyrosine-protein kinase Fer (Homo sapiens) (UniProt P16591); test: Inhibition of FER conserved Lys2 (QEDGGVYSSSGLKQIPIK) in human PBMC at 1 uM
# [6] = biological target: Serine/threonine-protein kinase 10 (Homo sapiens) (UniProt O94804); test: Inhibition of LOK conserved Lys2 (DLKAGNVLMTLEGDIR) in human PBMC at 1 uM; details: pooled result: one value given for 6 cell lines, strains, targets or settings
# [7] = biological target: Myosin light chain kinase, smooth muscle (Homo sapiens) (UniProt Q15746); test: Inhibition of smMLCK conserved Lys2 (QGIVHLDLKPENIMCVNK) in human PBMC at 1 uM
# [8] = biological target: Cyclin-dependent kinase 5 (Homo sapiens) (UniProt Q00535); test: Inhibition of CDK5 labeling at conserved Lys1 (NRETHEIVALKR) in human PBMC at 0.1 uM
# [9] = biological target: T1, Inhibitor of nuclear factor kappa-B kinase subunit epsilon (Homo sapiens) (UniProt Q14164); test: Inhibition of IKKe conserved Lys1 (SGELVAVKVFNTTSYLRPR) in human PBMC at 0.1 uM
# T1 sequence (whole entry): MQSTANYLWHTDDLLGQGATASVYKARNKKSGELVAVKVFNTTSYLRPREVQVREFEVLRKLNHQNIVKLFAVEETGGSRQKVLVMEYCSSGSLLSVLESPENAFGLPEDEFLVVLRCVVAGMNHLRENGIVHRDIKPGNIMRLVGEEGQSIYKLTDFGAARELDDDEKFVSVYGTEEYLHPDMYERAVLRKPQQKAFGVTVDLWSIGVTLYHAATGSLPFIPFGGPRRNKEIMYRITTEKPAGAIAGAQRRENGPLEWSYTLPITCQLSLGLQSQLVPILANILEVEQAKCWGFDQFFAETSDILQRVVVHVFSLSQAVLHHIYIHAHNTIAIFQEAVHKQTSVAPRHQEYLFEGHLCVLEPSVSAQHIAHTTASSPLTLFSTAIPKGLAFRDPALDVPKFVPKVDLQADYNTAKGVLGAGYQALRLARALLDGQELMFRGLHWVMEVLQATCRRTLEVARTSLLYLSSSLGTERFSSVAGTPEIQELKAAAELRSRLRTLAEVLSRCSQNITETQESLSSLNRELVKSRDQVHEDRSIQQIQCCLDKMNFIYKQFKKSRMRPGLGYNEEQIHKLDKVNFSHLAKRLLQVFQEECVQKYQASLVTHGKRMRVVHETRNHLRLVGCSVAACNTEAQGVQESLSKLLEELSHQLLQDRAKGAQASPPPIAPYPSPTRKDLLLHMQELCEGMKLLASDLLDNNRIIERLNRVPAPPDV
# [10] = biological target: Mitogen-activated protein kinase 9 (Homo sapiens) (UniProt P45984); test: Inhibition of JNK2 conserved Lys2 (DLKPSNIVVK) in human PBMC at 0.1 uM
# [11] = biological target: Leucine-rich repeat serine/threonine-protein kinase 2 (Homo sapiens, UniProt Q5S007); test: Inhibition of LRRK2 conserved Lys2 (DLKPHNVLLFTLYPNAAIIAK) in human PBMC at 0.1 uM
# [12] = biological target: Serine/threonine-protein kinase SIK2 (Homo sapiens) (UniProt Q9H0K1); test: Inhibition of QIK conserved Lys1 (EVAIKIIDK) in human PBMC at 0.1 uM
# [13] = biological target: Serine/threonine-protein kinase 24 (Homo sapiens) (UniProt Q9Y6E0); test: Inhibition of MST3 conserved Lys2 (DIKAANVLLSEHGEVK) in human PBMC at 0.1 uM
# [14] = biological target: Serine/threonine-protein kinase 25 (Homo sapiens) (UniProt O00506); test: Inhibition of YSK1 conserved Lys2 (DIKAANVLLSEQGDVK) in human PBMC at 0.1 uM
# [15] = biological target: Mitogen-activated protein kinase 14 (Homo sapiens) (UniProt Q16539); test: Inhibition of p38a (QELNKTIWEVPER) in human PBMC at 0.1 uM
# [16] = biological target: Phosphatidylinositol 5-phosphate 4-kinase type-2 gamma (Homo sapiens) (UniProt Q8TBX8); test: Inhibition of PIP4K2C ATP binding site (TLVIKEVSSEDIADMHSNLSNYHQYIVK) in human PBMC at 0.1 uM
# [17] = biological target: Interferon-induced, double-stranded RNA-activated protein kinase (Homo sapiens) (UniProt P19525); test: Inhibition of PKR conserved Lys2 (DLKPSNIFLVDTK) in human PBMC at 0.1 uM
# [18] = biological target: Ribosomal protein S6 kinase alpha-1 (Homo sapiens) (UniProt Q15418); test: Inhibition of RSK1 conserved Lys2 (DLKPENILLDEEGHIK) in human PBMC at 0.1 uM
# [19] = biological target: Ribosomal protein S6 kinase alpha-3 (Homo sapiens) (UniProt P51812); test: Inhibition of RSK2 conserved Lys2 (DLKPENILLDEEGHIK) in human PBMC at 0.1 uM
# [20] = biological target: T2, Serine/threonine-protein kinase ULK3 (Homo sapiens) (UniProt Q6PHR2); test: Inhibition of ULK3 conserved Lys2 (NISHLDLKPQNILLSSLEKPHLK) in human PBMC at 0.1 uM
# T2 sequence (whole entry): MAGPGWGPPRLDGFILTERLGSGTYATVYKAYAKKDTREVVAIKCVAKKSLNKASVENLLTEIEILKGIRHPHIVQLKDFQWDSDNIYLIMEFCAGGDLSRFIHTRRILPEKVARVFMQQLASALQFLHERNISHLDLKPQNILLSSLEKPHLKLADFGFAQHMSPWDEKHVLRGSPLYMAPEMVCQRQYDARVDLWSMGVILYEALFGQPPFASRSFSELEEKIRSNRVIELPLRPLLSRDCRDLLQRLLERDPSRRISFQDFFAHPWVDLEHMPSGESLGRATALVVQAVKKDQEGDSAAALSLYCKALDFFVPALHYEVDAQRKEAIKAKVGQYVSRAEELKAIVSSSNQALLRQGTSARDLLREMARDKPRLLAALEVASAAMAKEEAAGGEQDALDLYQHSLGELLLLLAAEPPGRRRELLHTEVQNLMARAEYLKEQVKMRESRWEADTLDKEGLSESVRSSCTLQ
# Cyclin-dependent kinase 5 (Homo sapiens), sequence (Q00535 whole entry, looked up): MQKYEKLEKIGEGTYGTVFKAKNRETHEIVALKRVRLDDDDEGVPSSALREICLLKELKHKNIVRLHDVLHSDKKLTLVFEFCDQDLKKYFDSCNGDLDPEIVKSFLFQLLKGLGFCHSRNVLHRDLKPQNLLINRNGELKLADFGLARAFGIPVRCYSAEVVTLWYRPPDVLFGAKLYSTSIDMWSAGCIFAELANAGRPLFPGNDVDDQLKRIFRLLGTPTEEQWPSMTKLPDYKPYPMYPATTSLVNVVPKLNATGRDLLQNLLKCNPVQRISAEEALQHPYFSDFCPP
# Tyrosine-protein kinase Fer (Homo sapiens), sequence (P16591 whole entry, looked up): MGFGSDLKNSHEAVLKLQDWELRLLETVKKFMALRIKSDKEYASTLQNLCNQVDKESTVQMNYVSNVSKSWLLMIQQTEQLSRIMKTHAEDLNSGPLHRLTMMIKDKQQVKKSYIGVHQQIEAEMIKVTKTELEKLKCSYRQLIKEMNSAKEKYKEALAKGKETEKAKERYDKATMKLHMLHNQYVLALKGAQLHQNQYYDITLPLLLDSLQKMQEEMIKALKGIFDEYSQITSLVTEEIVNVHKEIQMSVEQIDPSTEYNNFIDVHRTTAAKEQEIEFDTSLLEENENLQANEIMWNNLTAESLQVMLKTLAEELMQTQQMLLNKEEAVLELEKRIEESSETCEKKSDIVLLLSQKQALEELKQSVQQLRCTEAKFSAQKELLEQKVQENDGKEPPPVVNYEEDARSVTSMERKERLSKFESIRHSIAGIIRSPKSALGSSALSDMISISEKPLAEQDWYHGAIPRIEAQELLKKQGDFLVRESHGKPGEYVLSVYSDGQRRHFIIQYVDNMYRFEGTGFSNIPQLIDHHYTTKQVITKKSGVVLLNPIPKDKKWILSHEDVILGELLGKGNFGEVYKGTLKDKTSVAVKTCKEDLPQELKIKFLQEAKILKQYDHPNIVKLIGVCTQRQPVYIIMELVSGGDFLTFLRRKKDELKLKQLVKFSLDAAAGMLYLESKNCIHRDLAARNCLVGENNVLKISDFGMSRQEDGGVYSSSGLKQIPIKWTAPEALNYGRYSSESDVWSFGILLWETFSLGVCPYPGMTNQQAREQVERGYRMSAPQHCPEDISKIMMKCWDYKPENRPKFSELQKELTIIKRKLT
# Mitogen-activated protein kinase 14 (Homo sapiens), sequence (Q16539 whole entry): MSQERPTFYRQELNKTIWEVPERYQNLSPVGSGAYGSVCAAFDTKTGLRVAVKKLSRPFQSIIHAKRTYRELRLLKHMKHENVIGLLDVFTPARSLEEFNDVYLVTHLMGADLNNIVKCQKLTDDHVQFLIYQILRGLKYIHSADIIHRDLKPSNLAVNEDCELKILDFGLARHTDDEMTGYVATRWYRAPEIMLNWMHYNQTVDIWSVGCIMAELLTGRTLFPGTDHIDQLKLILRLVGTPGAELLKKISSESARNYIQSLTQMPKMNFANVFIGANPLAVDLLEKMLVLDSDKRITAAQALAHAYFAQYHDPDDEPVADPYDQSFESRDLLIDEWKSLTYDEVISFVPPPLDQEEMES
# Mitogen-activated protein kinase 9 (Homo sapiens), sequence (P45984 whole entry, looked up): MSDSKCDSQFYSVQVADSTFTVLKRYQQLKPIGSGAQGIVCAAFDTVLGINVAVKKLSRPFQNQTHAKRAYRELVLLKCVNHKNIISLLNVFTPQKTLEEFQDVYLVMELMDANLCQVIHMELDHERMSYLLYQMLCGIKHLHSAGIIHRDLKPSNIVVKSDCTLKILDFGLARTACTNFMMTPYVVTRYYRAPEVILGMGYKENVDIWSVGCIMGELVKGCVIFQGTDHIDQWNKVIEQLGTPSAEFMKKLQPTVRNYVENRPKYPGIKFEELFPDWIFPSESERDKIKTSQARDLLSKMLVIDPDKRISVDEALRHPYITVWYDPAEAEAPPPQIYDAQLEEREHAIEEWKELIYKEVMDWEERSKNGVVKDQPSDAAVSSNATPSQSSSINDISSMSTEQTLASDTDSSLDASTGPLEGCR
# Interferon-induced, double-stranded RNA-activated protein kinase (Homo sapiens), sequence (P19525 whole entry): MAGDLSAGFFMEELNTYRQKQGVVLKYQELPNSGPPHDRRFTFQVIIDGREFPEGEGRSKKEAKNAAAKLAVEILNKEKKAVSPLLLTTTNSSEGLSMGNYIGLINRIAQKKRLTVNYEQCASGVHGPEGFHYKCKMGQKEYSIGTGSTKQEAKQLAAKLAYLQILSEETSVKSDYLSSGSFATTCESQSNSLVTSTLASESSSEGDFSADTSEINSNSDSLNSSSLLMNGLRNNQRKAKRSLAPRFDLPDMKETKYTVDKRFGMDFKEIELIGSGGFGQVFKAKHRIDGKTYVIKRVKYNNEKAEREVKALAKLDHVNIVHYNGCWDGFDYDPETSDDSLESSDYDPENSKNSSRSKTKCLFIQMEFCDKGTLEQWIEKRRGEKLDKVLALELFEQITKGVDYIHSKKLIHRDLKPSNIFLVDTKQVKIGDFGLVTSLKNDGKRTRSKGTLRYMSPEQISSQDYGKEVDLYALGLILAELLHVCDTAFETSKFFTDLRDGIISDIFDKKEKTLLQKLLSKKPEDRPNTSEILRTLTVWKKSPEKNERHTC
# Phosphatidylinositol 5-phosphate 4-kinase type-2 gamma (Homo sapiens), sequence (Q8TBX8 whole entry): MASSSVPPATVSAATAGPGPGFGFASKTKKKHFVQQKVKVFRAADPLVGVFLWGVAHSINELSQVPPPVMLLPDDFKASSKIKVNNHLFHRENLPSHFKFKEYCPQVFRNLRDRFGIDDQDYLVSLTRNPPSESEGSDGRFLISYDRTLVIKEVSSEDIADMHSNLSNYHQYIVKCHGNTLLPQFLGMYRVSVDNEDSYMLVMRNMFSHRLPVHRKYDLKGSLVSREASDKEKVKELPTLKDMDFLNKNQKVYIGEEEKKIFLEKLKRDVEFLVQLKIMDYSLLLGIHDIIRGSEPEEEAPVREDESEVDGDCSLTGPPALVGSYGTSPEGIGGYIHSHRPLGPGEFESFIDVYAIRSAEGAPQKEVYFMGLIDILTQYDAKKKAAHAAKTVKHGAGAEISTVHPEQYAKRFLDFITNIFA
# 5'-AMP-activated protein kinase catalytic subunit alpha-1 (Homo sapiens), sequence (Q13131 whole entry, looked up): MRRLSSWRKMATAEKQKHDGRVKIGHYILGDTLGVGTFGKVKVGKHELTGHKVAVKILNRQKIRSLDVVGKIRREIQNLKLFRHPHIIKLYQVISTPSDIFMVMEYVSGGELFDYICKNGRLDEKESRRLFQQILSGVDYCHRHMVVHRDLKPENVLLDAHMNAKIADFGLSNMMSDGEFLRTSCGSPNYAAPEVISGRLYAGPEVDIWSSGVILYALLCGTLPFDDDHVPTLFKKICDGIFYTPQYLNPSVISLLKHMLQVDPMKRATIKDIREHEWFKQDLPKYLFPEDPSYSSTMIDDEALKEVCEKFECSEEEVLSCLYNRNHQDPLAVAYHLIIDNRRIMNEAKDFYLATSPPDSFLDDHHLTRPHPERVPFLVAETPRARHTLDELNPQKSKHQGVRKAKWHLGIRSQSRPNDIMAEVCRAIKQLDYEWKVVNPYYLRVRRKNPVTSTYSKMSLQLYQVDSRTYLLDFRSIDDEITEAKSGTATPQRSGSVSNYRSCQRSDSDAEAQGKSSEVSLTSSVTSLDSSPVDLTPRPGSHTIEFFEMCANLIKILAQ
# Ribosomal protein S6 kinase alpha-3 (Homo sapiens), sequence (P51812 whole entry): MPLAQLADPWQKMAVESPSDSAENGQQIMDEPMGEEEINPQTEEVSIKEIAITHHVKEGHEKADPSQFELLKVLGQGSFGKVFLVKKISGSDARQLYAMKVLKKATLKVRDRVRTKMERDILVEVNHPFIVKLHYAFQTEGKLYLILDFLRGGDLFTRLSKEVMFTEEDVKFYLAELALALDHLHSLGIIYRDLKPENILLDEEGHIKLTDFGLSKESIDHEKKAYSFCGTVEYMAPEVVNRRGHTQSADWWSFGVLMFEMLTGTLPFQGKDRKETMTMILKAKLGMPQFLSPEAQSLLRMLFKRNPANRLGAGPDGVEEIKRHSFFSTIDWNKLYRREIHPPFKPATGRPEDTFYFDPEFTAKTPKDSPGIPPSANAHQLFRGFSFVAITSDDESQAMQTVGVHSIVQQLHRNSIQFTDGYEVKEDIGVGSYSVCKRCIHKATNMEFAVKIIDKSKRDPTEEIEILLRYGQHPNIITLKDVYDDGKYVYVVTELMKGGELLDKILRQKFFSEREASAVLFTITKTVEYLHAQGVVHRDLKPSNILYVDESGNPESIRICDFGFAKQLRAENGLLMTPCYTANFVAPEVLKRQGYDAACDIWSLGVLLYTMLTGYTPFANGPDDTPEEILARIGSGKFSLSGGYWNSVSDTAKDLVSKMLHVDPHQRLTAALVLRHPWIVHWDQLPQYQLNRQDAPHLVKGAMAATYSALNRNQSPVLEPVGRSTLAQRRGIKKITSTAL
# Serine/threonine-protein kinase 24 (Homo sapiens), sequence (Q9Y6E0 whole entry, looked up): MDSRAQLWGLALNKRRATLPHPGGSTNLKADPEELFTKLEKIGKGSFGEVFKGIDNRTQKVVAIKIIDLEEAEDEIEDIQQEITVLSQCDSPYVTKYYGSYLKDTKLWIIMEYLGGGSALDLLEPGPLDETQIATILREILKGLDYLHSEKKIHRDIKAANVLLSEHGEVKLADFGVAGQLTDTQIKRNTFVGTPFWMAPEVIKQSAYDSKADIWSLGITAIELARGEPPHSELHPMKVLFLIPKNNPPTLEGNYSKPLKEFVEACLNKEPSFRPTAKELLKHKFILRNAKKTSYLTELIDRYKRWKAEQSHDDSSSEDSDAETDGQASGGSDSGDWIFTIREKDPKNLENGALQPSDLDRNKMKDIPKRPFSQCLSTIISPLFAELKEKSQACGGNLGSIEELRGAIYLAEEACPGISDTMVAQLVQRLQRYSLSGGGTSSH
# Mitogen-activated protein kinase 1 (Homo sapiens), sequence (P28482 whole entry): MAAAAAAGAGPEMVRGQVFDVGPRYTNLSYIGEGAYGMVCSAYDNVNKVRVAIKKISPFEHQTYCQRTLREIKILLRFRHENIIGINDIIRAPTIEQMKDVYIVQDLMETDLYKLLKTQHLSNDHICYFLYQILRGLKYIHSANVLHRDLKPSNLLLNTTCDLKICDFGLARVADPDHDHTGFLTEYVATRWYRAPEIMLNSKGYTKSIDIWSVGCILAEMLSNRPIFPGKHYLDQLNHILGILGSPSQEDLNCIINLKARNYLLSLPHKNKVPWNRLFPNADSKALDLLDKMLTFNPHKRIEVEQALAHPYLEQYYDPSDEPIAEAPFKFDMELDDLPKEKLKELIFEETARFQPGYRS
smiles,measurement,setting,value
CC(C)n1cc(-c2cc(-c3ccc(CN4CCOCC4)cc3)cnc2N)nn1,inhibition,[1],17.3%
same,inhibition,[2],16.8%
same,inhibition,[3],8.9%
same,inhibition,[4],14.9%
same,inhibition,[5],5.2%
same,inhibition,[6],14.5%
same,inhibition,[7],3.2%
same,inhibition,[8],-1.1%
same,inhibition,[9],6.2%
same,inhibition,[10],25.1%
same,inhibition,[11],8.6%
same,inhibition,[12],-6.7%
same,inhibition,[13],11%
same,inhibition,[14],0.5%
same,inhibition,[15],8.2%
same,inhibition,[16],-8.1%
same,inhibition,[17],13.7%
same,inhibition,[18],11.8%
same,inhibition,[19],11.8%
same,inhibition,[20],27.2%
